Measured values taken from patent US11903387B2 (priority 2016, dated 2024).
Read-outs that look alike come from different tables or passages of the source.

Legend:
Phytophthora infestans = assay: whole plant or invertebrate; format: in vivo; settings: for Test 1 preventive value, Measured: applied alone; for pest or weed control at 200 ppm: read-out: Test 1 Measured, component (b) alone 200 ppm
[1] = system: Pseudoperonospora cubensis; assay: Test 2: control effect against cucumber downy mildew; format: in vivo; settings: for pest or weed control at 200 ppm: component (b) alone 200 ppm
[2] = component (b) alone 0.4 ppm, average of three repeats
[3] = component (b) alone 2 ppm, average of three repeats
[4] = component (b) alone 10 ppm, average of three repeats
[5] = component (b) alone 0.08 ppm, average of three repeats
[6] = Phytophthora infestans, in Solanum lycopersicum, read-out: Test 1 preventive value, Measured, applied alone, 2 ppm
[7] = Phytophthora infestans, in Solanum lycopersicum, read-out: Test 1 preventive value, Measured, applied alone, 10 ppm
[8] = Phytophthora infestans, in Solanum lycopersicum, read-out: Test 1 preventive value, Measured, applied alone, 50 ppm
[9] = Pseudoperonospora cubensis, applied alone, 0.4 ppm, read-out: Test 2 preventive value, Measured
[10] = Pseudoperonospora cubensis, applied alone, 2 ppm, read-out: Test 2 preventive value, Measured
[11] = Pseudoperonospora cubensis, applied alone, 10 ppm, read-out: Test 2 preventive value, Measured
[12] = Phytophthora infestans, in Solanum lycopersicum
[13] = Pseudoperonospora cubensis, read-out: Test 2 Measured
[14] = Phytophthora infestans, in Solanum lycopersicum, read-out: Test 1 Measured preventive value, component (b) alone, 2 ppm
[15] = Phytophthora infestans, in Solanum lycopersicum, read-out: Test 1 Measured preventive value, component (b) alone, 10 ppm

COCC(=O)N(c1c(C)cccc1C)[C@H](C)C(=O)OC [Metalaxyl-M]
Test 1 Measured preventive value (Phytophthora infestans; [2]): 38.3
Test 1 Measured preventive value (Phytophthora infestans; [3]): 89.2
Test 1 Measured preventive value (Phytophthora infestans; [4]): 100.0
Test 1 Measured (Phytophthora infestans; component (b) alone, 0.4 ppm): 54.4
Test 1 Measured preventive value (Phytophthora infestans; component (b) alone, 0.4 ppm): 38.3
Test 1 Measured (Phytophthora infestans; component (b) alone, 2 ppm): 86.0
Test 1 Measured preventive value (Phytophthora infestans; component (b) alone, 2 ppm): 89.3
Test 1 Measured (Phytophthora infestans; component (b) alone, 10 ppm): 99.0
Test 1 Measured preventive value (Phytophthora infestans; component (b) alone, 10 ppm): 98.5
Test 2 Measured preventive value [1, 2]: 0
Test 2 Measured preventive value [1, 3]: 0
Test 2 Measured preventive value [1, 4]: 0
Test 2 Measured ([1]; component (b) alone, 0.4 ppm): 0
Test 2 Measured preventive value ([1]; component (b) alone, 0.4 ppm): 0
Test 2 Measured ([1]; component (b) alone, 2 ppm): 0
Test 2 Measured preventive value ([1]; component (b) alone, 2 ppm): 0
Test 2 Measured ([1]; component (b) alone, 10 ppm): 0
Test 2 Measured preventive value ([1]; component (b) alone, 10 ppm): 0

COc1cc(C)c(C(=O)c2c(OC)ncc(Cl)c2C)c(OC)c1OC [Pyriofenone]
Test 1 preventive value, Measured (Phytophthora infestans; 10 ppm): 0.0
Test 1 preventive value, Measured (Phytophthora infestans; 50 ppm): 0.0
Test 1 preventive value, Measured (Phytophthora infestans; 250 ppm): 0.0
Test 2 Measured ([1]; component (b) alone 250 ppm): 10
Test 2 Measured ([1]; component (b) alone, 10 ppm): 0
Test 2 Measured ([1]; component (b) alone, 50 ppm): 5

C#CCOc1ccc(CCNC(=O)C(OCC#C)c2ccc(Cl)cc2)cc1OC (stereo not shown) [Mandipropamid]
Test 1 Measured preventive value (Phytophthora infestans; [5]): 36.7
Test 1 Measured preventive value (Phytophthora infestans; [2]): 95.5
Test 1 Measured preventive value (Phytophthora infestans; [3]): 100.0
Test 1 Measured (Phytophthora infestans; component (b) alone, 0.08 ppm): 40.0
Test 1 Measured preventive value (Phytophthora infestans; component (b) alone, 0.08 ppm): 36.7
Test 1 Measured (Phytophthora infestans; component (b) alone, 0.4 ppm): 94.0
Test 1 Measured preventive value (Phytophthora infestans; component (b) alone, 0.4 ppm): 95.5
Test 1 Measured (Phytophthora infestans; component (b) alone, 2 ppm): 100.0
Test 1 Measured preventive value (Phytophthora infestans; component (b) alone, 2 ppm): 100.0
Test 2 Measured preventive value [1, 5]: 5
Test 2 Measured preventive value [1, 2]: 89.5
Test 2 Measured preventive value [1, 3]: 95
Test 2 Measured ([1]; component (b) alone, 0.08 ppm): 12
Test 2 Measured preventive value ([1]; component (b) alone, 0.08 ppm): 5
Test 2 Measured ([1]; component (b) alone, 0.4 ppm): 88.3
Test 2 Measured preventive value ([1]; component (b) alone, 0.4 ppm): 89.5
Test 2 Measured ([1]; component (b) alone, 2 ppm): 95
Test 2 Measured preventive value ([1]; component (b) alone, 2 ppm): 95

O=[N+]([O-])c1cc(C(F)(F)F)c(Cl)c([N+](=O)[O-])c1Nc1ncc(C(F)(F)F)cc1Cl [Fluazinam]
pest or weed control at 2 ppm (Phytophthora infestans; [6]): 0%
pest or weed control at 10 ppm (Phytophthora infestans; [7]): 16.7%
pest or weed control at 50 ppm (Phytophthora infestans; [8]): 60.8%
pest or weed control at 0.4 ppm [1, 9]: 0%
pest or weed control at 2 ppm [1, 10]: 90.8%
pest or weed control at 10 ppm [1, 11]: 100%

N=C(N)NCCCCCCCCNCCCCCCCCNC(=N)N [Iminoctadine]
Test 1 Measured (Phytophthora infestans; component (b) alone, 20 ppm): 5
Test 1 Measured (Phytophthora infestans; component (b) alone, 100 ppm): 92.5
Test 1 Measured (Phytophthora infestans; component (b) alone, 500 ppm): 96.5
Test 2 Measured ([1]; component (b) alone, 20 ppm): 79.5
Test 2 Measured ([1]; component (b) alone, 100 ppm): 97
Test 2 Measured ([1]; component (b) alone, 500 ppm): 99

Basic copper sulfate
Test 1 Measured (Phytophthora infestans; component (b) alone, 20 ppm): 55
Test 1 Measured preventive value (Phytophthora infestans; component (b) alone, 20 ppm): 71.7
Test 1 Measured (Phytophthora infestans; component (b) alone, 100 ppm): 90.7
Test 1 Measured preventive value (Phytophthora infestans; component (b) alone, 100 ppm): 92.5
Test 1 Measured (Phytophthora infestans; component (b) alone, 500 ppm): 100
Test 1 Measured preventive value (Phytophthora infestans; component (b) alone, 500 ppm): 100
Test 2 Measured ([1]; component (b) alone, 20 ppm): 32
Test 2 Measured preventive value ([1]; component (b) alone, 20 ppm): 18.8
Test 2 Measured ([1]; component (b) alone, 100 ppm): 80.9
Test 2 Measured preventive value ([1]; component (b) alone, 100 ppm): 82
Test 2 Measured ([1]; component (b) alone, 500 ppm): 95
Test 2 Measured preventive value ([1]; component (b) alone, 500 ppm): 97

CCCC1COC(Cn2cncn2)(c2ccc(Cl)cc2Cl)O1 (stereo not shown) [Propiconazole]
pest or weed control at 8 ppm (Phytophthora infestans; Phytophthora infestans, in Solanum lycopersicum, read-out: Test 1 Measured, component (b) alone 8 ppm): 0%
pest or weed control at 40 ppm (Phytophthora infestans; Phytophthora infestans, in Solanum lycopersicum, read-out: Test 1 Measured, component (b) alone 40 ppm): 35%
pest or weed control at 200 ppm (Phytophthora infestans; [12]): 53.3%
pest or weed control at 8 ppm ([1]; Pseudoperonospora cubensis, component (b) alone 8 ppm, read-out: Test 2 Measured): 0%
pest or weed control at 40 ppm ([1]; Pseudoperonospora cubensis, component (b) alone 40 ppm, read-out: Test 2 Measured): 7.5%
pest or weed control at 200 ppm [1, 13]: 57.5%

CCNc1nc(CC)c(C(=O)NC(C#N)c2cccs2)s1 (stereo not shown) [Ethaboxam]
Test 1 Measured preventive value (Phytophthora infestans; component (b) alone, 2 ppm): 95
Test 1 Measured preventive value (Phytophthora infestans; component (b) alone, 10 ppm): 98.3
Test 1 Measured preventive value (Phytophthora infestans; component (b) alone, 50 ppm): 97.8
Test 2 Measured preventive value ([1]; component (b) alone, 2 ppm): 88.3
Test 2 Measured preventive value ([1]; component (b) alone, 10 ppm): 99.5
Test 2 Measured preventive value ([1]; component (b) alone, 50 ppm): 100

CCNC(=O)NC(=O)/C(C#N)=N/OC [Cymoxanil]
pest or weed control at 2 ppm (Phytophthora infestans; [14]): 31.7%
pest or weed control at 10 ppm (Phytophthora infestans; [15]): 78.3%
pest or weed control at 50 ppm (Phytophthora infestans; Phytophthora infestans, in Solanum lycopersicum, read-out: Test 1 Measured preventive value, component (b) alone, 50 ppm): 100%
Test 2 Measured preventive value ([1]; component (b) alone, 2 ppm): 0
Test 2 Measured preventive value ([1]; component (b) alone, 10 ppm): 0
Test 2 Measured preventive value ([1]; component (b) alone, 50 ppm): 46.3

Cc1ccc(C(C)NC(=O)[C@@H](NC(=O)OC(C)C)C(C)C)cc1 (stereo partly shown) [Iprovalicarb]
Test 1 Measured (Phytophthora infestans; component (b) alone, 0.4 ppm): 15
Test 1 Measured (Phytophthora infestans; component (b) alone, 2 ppm): 93.3
Test 1 Measured (Phytophthora infestans; component (b) alone, 10 ppm): 100
Test 2 Measured ([1]; component (b) alone, 0.4 ppm): 0
Test 2 Measured ([1]; component (b) alone, 2 ppm): 0
Test 2 Measured ([1]; component (b) alone, 10 ppm): 93.8

N#Cc1c(Cl)c(Cl)c(Cl)c(C#N)c1Cl [Chlorothalonil]
pest or weed control at 0.4 ppm (Phytophthora infestans; Phytophthora infestans, in Solanum lycopersicum, read-out: Test 1 Measured preventive value, component (b) alone, 0.4 ppm): 0%
pest or weed control at 2 ppm (Phytophthora infestans; [14]): 53.3%
pest or weed control at 10 ppm (Phytophthora infestans; [15]): 100%
pest or weed control at 0.4 ppm (Phytophthora infestans; Phytophthora infestans, in Solanum lycopersicum, read-out: Test 1 Measured, component (b) alone, 0.4 ppm): 0%
pest or weed control at 2 ppm (Phytophthora infestans; Phytophthora infestans, in Solanum lycopersicum, read-out: Test 1 Measured, component (b) alone, 2 ppm): 62.1%
pest or weed control at 10 ppm (Phytophthora infestans; Phytophthora infestans, in Solanum lycopersicum, read-out: Test 1 Measured, component (b) alone, 10 ppm): 100%
pest or weed control at 0.4 ppm [1, 9]: 41.8%
pest or weed control at 2 ppm [1, 10]: 100%
pest or weed control at 10 ppm [1, 11]: 100%
pest or weed control at 0.4 ppm ([1]; Pseudoperonospora cubensis, component (b) alone, 0.4 ppm, read-out: Test 2 Measured): 0%
pest or weed control at 2 ppm ([1]; Pseudoperonospora cubensis, component (b) alone, 2 ppm, read-out: Test 2 Measured): 80.5%
pest or weed control at 10 ppm ([1]; Pseudoperonospora cubensis, component (b) alone, 10 ppm, read-out: Test 2 Measured): 100%

COC(=O)NC(=S)Nc1ccccc1NC(=S)NC(=O)OC [Thiophanate-methyl]
pest or weed control at 20 ppm (Phytophthora infestans; Phytophthora infestans, in Solanum lycopersicum, read-out: Test 1 Measured, component (b) alone 20 ppm): 0%
pest or weed control at 500 ppm (Phytophthora infestans; Phytophthora infestans, in Solanum lycopersicum, read-out: Test 1 Measured, component (b) alone 500 ppm): 60%
pest or weed control at 20 ppm ([1]; Pseudoperonospora cubensis, component (b) alone 20 ppm, read-out: Test 2 Measured): 0%
pest or weed control at 100 ppm ([1]; Pseudoperonospora cubensis, component (b) alone 100 ppm, read-out: Test 2 Measured): 0%
pest or weed control at 500 ppm ([1]; Pseudoperonospora cubensis, component (b) alone 500 ppm, read-out: Test 2 Measured): 2.5%

CO/N=C(/C(=O)OC)c1ccccc1COc1ccccc1C [Kresoxim-methyl]
pest or weed control at 2 ppm (Phytophthora infestans; [6]): 50%
pest or weed control at 10 ppm (Phytophthora infestans; [7]): 90.7%
pest or weed control at 50 ppm (Phytophthora infestans; [8]): 99.8%
pest or weed control at 2 ppm [1, 10]: 0%
pest or weed control at 10 ppm [1, 11]: 7.5%
pest or weed control at 50 ppm ([1]; Pseudoperonospora cubensis, applied alone, 50 ppm, read-out: Test 2 preventive value, Measured): 2.5%

CCO[PH](=O)O [Fosetyl-aluminum]
Test 1 Measured (Phytophthora infestans; component (b) alone 80 ppm): 31.7
Test 1 Measured (Phytophthora infestans; component (b) alone 400 ppm): 85.7
Test 2 Measured ([1]; component (b) alone 80 ppm): 0
Test 2 Measured ([1]; component (b) alone 400 ppm): 22.5
Test 2 Measured ([1]; component (b) alone 2000 ppm): 49

CCCOC(=O)NCCCN(C)C [Propamocarb]
pest or weed control at 200 ppm (Phytophthora infestans; [12]): 5%
pest or weed control at 1000 ppm (Phytophthora infestans; Phytophthora infestans, in Solanum lycopersicum, read-out: Test 1 Measured, component (b) alone 1000 ppm): 21.7%
pest or weed control at 5000 ppm (Phytophthora infestans; Phytophthora infestans, in Solanum lycopersicum, read-out: Test 1 Measured, component (b) alone 5000 ppm): 48.3%
pest or weed control at 200 ppm [1, 13]: 45%
pest or weed control at 1000 ppm ([1]; Pseudoperonospora cubensis, component (b) alone 1000 ppm, read-out: Test 2 Measured): 97.5%
pest or weed control at 5000 ppm ([1]; Pseudoperonospora cubensis, component (b) alone 5000 ppm, read-out: Test 2 Measured): 81.5%

CCCCCCCCc1c(CC)nc2ncnn2c1N [Ametoctradin]
Test 1 Measured (Phytophthora infestans; component (b) alone, 0.4 ppm): 0.0
Test 1 Measured (Phytophthora infestans; component (b) alone, 2 ppm): 18.3
Test 1 Measured (Phytophthora infestans; component (b) alone, 10 ppm): 95.7
Test 2 Measured ([1]; component (b) alone, 0.4 ppm): 77.5
Test 2 Measured ([1]; component (b) alone, 2 ppm): 95
Test 2 Measured ([1]; component (b) alone, 10 ppm): 98.8
